How the values were obtained:
[1] = system: Erysiphe Graminis f.sp. Tritici; assay: Action against Erysiphe graminis f.sp. tritici (wheat powdery mildew), leaf segments, preventive; assay type: in vivo; details: Blumeria graminis, foliar, 168 h, 0.02% active ingredient, assessed 7 days after inoculation, read-out: inhibition (preventive fungicidal activity)
Protocol: (§1) Wheat leaf segments were placed on agar in multiwell plates (24-well format) and sprayed with test solutions (0.02% active ingredient). After drying, the leaf disks were inoculated with a spore suspension of the fungus. After appropriate incubation the activity of a compound was assessed 7 days after inoculation as preventive fungicidal activity.

[2] = system: Puccinia Recondita; assay: Preventive action against Puccinia recondita (brown rust) on wheat leaf segments; assay type: in vivo; details: foliar, 192 h, 0.02% active ingredient, assessed 8 days after inoculation, read-out: inhibition (preventive fungicidal activity)
Text: Wheat leaf segments were placed on agar in multiwell plates (24-well format) and sprayed with test solutions (0.02% active ingredient). After drying, the leaf disks were inoculated with a spore suspension of the fungus.

[3] = system: Pyrenophora teres; assay: Action against Pyrenophora teres (net blotch) on barley leaf segments; assay type: in vivo; details: foliar, 96 h, 0.02% active ingredient, assessed 4 days after inoculation, read-out: inhibition (preventive fungicidal activity)
Protocol: as §1, with “Barley” for “Wheat”, “4” for “7”

[4] = system: Botryotinia fuckelianal; assay: Action against Botryotinia fuckeliana, liquid culture (gray mould); assay type: cell-based; details: Botrytis cinerea; nutrient broth, 0.02% active ingredient, 24° C., photometrically after 3-4 days; read-out: inhibition of growth
Protocol: (§2) Conidia of the fungus from cryogenic storage were directly mixed into nutrient broth. After placing a (DMSO) solution (0.02% active ingredient) of the test compounds into a microtiter plate (96-well format) the nutrient broth containing the fungal spores was added. The test plates were incubated at 24° C. and the inhibition of growth was determined photometrically after 3-4 days.

[5] = system: Mycosphaerella arachidis; assay: Action against Mycosphaerella arachidis, liquid culture (early leaf spot); assay type: cell-based; details: PDB potato dextrose broth, 0.02% active ingredient, 24° C., photometrically after 6-7 days, read-out: inhibition of growth
Protocol: as §2, with “broth (PDB potato dextrose broth).” for “broth.”, “solution” for “solution (0.02% active ingredient)”, “compounds (0.02% active ingredient)” for “compounds”, “measured” for “determined”, “6-7” for “3-4”

[6] = system: Puccinia Recondita; assay: Curative action against Puccinia recondita (brown rust) on wheat leaf segments; assay type: in vivo; details: foliar, sprayed one day after inoculation, 0.02% active ingredient, assessed 8 days after inoculation, read-out: inhibition (curative fungicidal activity)
Text: Wheat leaf segments were placed on agar in multiwell plates (24-well format) and inoculated with a spore suspension of the fungus. One day after inoculation the leaf segments were sprayed with test solutions (0.02% active ingredient).

[7] = system: Phaeosphaeria nodorum; assay: Preventive action against Phaeosphaeria nodorum (glume blotch) on wheat leaf segments; assay type: in vivo; details: Parastagonospora nodorum, foliar, 96 h, 0.02% active ingredient, assessed 4 days after inoculation, read-out: inhibition (preventive fungicidal activity)
Protocol: Wheat leaf segments were placed on agar in a multiwell plate (24-well format) and sprayed with test solutions (0.02% active ingredient). After drying, the leaf disks were inoculated with a spore suspension of the fungus. After appropriate incubation the activity of a compound was assessed 4 days after inoculation as preventive fungicidal activity.

| melting point [°C] | Compound | inhibition at 0.02 % strength [1] [%] | inhibition at 0.02 % strength [2] [%] | inhibition at 0.02 % strength [3] [%] | inhibition at 0.02 % strength [4] [%] | inhibition at 0.02 % strength [5] [%] | inhibition at 0.02 % strength [6] [%] | inhibition at 0.02 % strength [7] [%] |
| --- | --- | --- | --- | --- | --- | --- | --- | --- |
| – | COC(c1csc(Cl)c1Cl)C(C)N(OC)C(=O)c1cn(C)nc1C(F)F (stereo not drawn) [1.037 (diastereoisomer pair 1), 3-difluoromethyl-1-methyl-1H-pyrazole-4-carboxylic acid methoxy-[2-methoxy-1-methyl-2-(4,5-dichlorothiophen-3-yl)ethyl]amide] | ≥ 80 | ≥ 80 | ≥ 80 | ≥ 80 | ≥ 80 | – | – |
| – | COC(c1csc(Cl)c1Cl)C(C)N(OC)C(=O)c1cn(C)nc1C(F)F (stereo not drawn) [1.037 (diastereoisomer pair 2), 3-difluoromethyl-1-methyl-1H-pyrazole-4-carboxylic acid methoxy-[2-methoxy-1-methyl-2-(4,5-dichlorothiophen-3-yl)ethyl]amide] | – | – | – | – | – | ≥ 80 | – |
| 70 to 72 | CON(C(=O)c1cn(C)nc1C(F)F)C(C)Cc1c(Cl)sc(Cl)c1Cl (centres unmarked) [Compound 1.001, 3-difluoromethyl-1-methyl-1H-pyrazole-4-carboxylic acid methoxy-[1-methyl-2-(2,4,5-trichlorothiophene-3-yl)ethyl]amide] | ≥ 80 | ≥ 80 | ≥ 80 | ≥ 80 | ≥ 80 | ≥ 80 | ≥ 80 |
| 113 to 116 | COC(c1c(Cl)sc(Cl)c1Cl)C(C)N(OC)C(=O)c1cn(C)nc1C(F)F (centres unmarked) [Compound 1.016, 3-difluoromethyl-1-methyl-1H-pyrazole-4-carboxylic acid methoxy-[2-methoxy-1-methyl-2-(2,4,5-trichlorothiophene-3-yl)ethyl]amide] | ≥ 80 | ≥ 80 | ≥ 80 | ≥ 80 | ≥ 80 | ≥ 80 | ≥ 80 |
| 80 to 83 | COC(c1csc(Cl)c1Cl)C(C)N(OC)C(=O)c1cn(C)nc1C(F)F (centres unmarked) [Compound 1.037, 3-difluoromethyl-1-methyl-1H-pyrazole-4-carboxylic acid methoxy-[2-methoxy-1-methyl-2-(4,5-dichlorothiophen-3-yl)ethyl]amide] | – | – | – | – | – | – | – |
